Test results taken from patent publication US10227331B2 (priority 2015, dated 2019).
pIC50: −log10 of the molar value.

Legend:
[1] = tested on: P. aeruginosa expressing IMP-1, efflux− (MB9799); experiment: Efflux: concentration of MBL inhibitor which restores susceptibility to imipenem; type: cell-based, Pseudomonas aeruginosa; details: imipenem at 2 μg/mL, in the presence of a class A, C, D serine β-lactamase inhibitor closely related to relebactam
From the text: (§1) The strain background is Pseudomonas aeruginosa PAO1.

VIM-1 = VIM-1 (Pseudomonas aeruginosa (strain ATCC 15692 / DSM 22644 / CIP 104116 / JCM 14847 / LMG 12228 / 1C / PRS 101 / PAO1), UniProt A0A0F7KYQ8); experiment: biochemical; details: CCF2-FA substrate, 2 hours at 25° C
Procedure, shortened: (§2)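 IC50 values derive from 4-parameter fits of percent inhibition against inhibitor concentration on semi-log axes. Activity was monitored by fluorescence with the CCF2-FA substrate after a 2-hour, 25° C incubation of compound, enzyme and substrate.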

[2] = tested on: Klebsiella pneumoniae expressing VIM-1 (IHMA599644); type: cell-based; details: with imipenem 1 μg/ml; 95% inhibition of bacterial growth
Procedure, shortened: (§3)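 Restoration of imipenem susceptibility (1 μg/ml imipenem) was judged by absorbance after 22–24 h at 35° C. Test compound was added to bacteria suspended 1:100 in 1.1× CAMHB from overnight blood-agar cultures.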

[3] = tested on: Escherichia coli expressing NDM-1 (CLB30005, CLB30016); type: cell-based; details: with imipenem 1 μg/ml; 95% inhibition of bacterial growth
Procedure, shortened: as §3

[4] = tested on: Serratia marcescens expressing IMP-1 (CL5741); type: cell-based; details: with imipenem 1 μg/ml; 95% inhibition of bacterial growth
Procedure, shortened: as §3

[5] = tested on: P. aeruginosa expressing IMP-1, efflux+ (MB9798); type: cell-based, Pseudomonas aeruginosa; details: for P. aeruginosa expressing IMP-1, efflux+ (MB9798) MITC95: imipenem at 2 μg/mL, in the presence of a class A, C, D serine β-lactamase inhibitor closely related to relebactam; for Efflux ratio: ratio MITC95 PA_9798/MITC95 PA_9799
From the text: as §1

NDM-1 = NDM-1 (Klebsiella pneumoniae, UniProt C7C422); experiment: biochemical; type: biochemical; details: CCF2-FA substrate, 2 hours at 25° C; read-out: NDM-1 IC50
Procedure, shortened: as §2

IMP-1 = IMP-1 (Serratia marcescens, UniProt P52699); experiment: biochemical; type: biochemical; details: CCF2-FA substrate, 2 hours at 25° C; read-out: IMP-1 IC50
Procedure, shortened: as §2

Chain of IMP-1 (P52699 whole entry, looked up, species assumed): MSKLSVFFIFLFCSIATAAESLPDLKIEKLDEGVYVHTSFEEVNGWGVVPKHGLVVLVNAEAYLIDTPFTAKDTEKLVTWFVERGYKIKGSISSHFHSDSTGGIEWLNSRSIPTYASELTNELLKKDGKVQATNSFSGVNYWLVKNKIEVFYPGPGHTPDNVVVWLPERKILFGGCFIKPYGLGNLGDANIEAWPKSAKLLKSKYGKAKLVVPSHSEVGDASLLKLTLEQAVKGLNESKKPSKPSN
Chain of NDM-1 (C7C422 whole entry, looked up, species assumed): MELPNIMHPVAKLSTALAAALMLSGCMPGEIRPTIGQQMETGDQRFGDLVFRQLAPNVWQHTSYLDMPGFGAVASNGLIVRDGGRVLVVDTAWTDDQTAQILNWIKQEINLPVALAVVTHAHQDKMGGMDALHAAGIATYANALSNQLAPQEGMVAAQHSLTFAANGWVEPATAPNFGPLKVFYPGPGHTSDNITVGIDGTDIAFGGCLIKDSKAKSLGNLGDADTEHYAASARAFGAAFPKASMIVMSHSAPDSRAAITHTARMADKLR

Row | Structure (SMILES) | P. aeruginosa expressing IMP-1, efflux− (MB9799) MITC95 [1] | pIC50 (VIM-1) | Klebsiella pneumoniae expressing VIM-1 (IHMA599644) MITC95 [2] | Escherichia coli expressing NDM-1 (CLB30016) MITC95 [3] | Serratia marcescens expressing IMP-1 (CL5741) MITC95 [4] | P. aeruginosa expressing IMP-1, efflux+ (MB9798) MITC95 [5] | Efflux ratio [5] | pIC50 (NDM-1) | pIC50 (IMP-1)
1 | COc1ccc(Cc2cc3c(-c4ccc(S(=O)(=O)C5CNC5)c(S(N)(=O)=O)c4-c4nnn[nH]4)cccc3[nH]2)cc1 [Example 231, 6-(azetidin-3-ylsulfonyl)-3-(2-(4-methoxybenzyl)-1H-indol-4-yl)-2-(1H-tetrazol-5-yl)benzenesulfonamide] | 3.125 µM | 9.25 | 12.5 µM | 6.25 µM | 6.25 µM | 25 µM | 8.00 | 9.99 | 9.14
2 | Nc1nc2c(-c3ccc(S(=O)(=O)c4ccccc4)c(S(N)(=O)=O)c3-c3nnn[nH]3)cccc2s1 [Example 232, 3-(2-aminobenzo[d]thiazol-4-yl)-6-(phenylsulfonyl)-2-(1H-tetrazol-5-yl)benzenesulfonamide] | 1.563 µM | 9.27 | 12.5 µM | 6.25 µM | 3.125 µM | 12.5 µM | 8.00 | 9.23 | 9.23
3 | Nc1nc2c(-c3ccc(S(=O)(=O)c4ccccn4)c(S(N)(=O)=O)c3-c3nnn[nH]3)cccc2s1 [Example 233, 3-(2-aminobenzo[d]thiazol-4-yl)-6-(pyridin-2-ylsulfonyl)-2-(1H-tetrazol-5-yl)benzenesulfonamide] | 1.563 µM | 9.95 | 12.5 µM | 3.125 µM | 3.125 µM | 12.5 µM | 8.00 | 10.49 | 9.69
4 | CSc1ccc(-c2ccc(C3CCNCC3)cc2)c(-c2nnn[nH]2)c1S(N)(=O)=O [Example 234, 4-(Methylthio)-4′-(piperidin-4-yl)-2-(1H-tetrazol-5-yl)-[1,1′-biphenyl]-3-sulfonamide] | 0.7813 µM | 7.86 | 12.5 µM | 3.125 µM | 3.125 µM | 50 µM | 64.00 | 7.81 | 8.36
5 | C[S+]([O-])c1ccc(-c2ccc(C3CCNCC3)cc2)c(-c2nnn[nH]2)c1S(N)(=O)=O (stereo not drawn) [Example 235, 4-(methylsulfinyl)-4′-(piperidin-4-yl)-2-(1H-tetrazol-5-yl)-[1,1′-biphenyl]-3-sulfonamide] | 6.25 µM | 8.09 | 50 µM | 12.5 µM | 12.5 µM | 50 µM | 8.00 | 7.50 | 7.63
6 | CS(=O)(=O)c1ccc(-c2ccc(C3CCNCC3)cc2)c(-c2nnn[nH]2)c1S(N)(=O)=O [Example 236, 4-(methylsulfonyl)-4′-(piperidin-4-yl)-2-(1H-tetrazol-5-yl)-[1,1′-biphenyl]-3-sulfonamide] | 0.7813 µM | 9.90 | 3.125 µM | 3.125 µM | 3.125 µM | 6.25 µM | 8.00 | 8.67 | 9.99
7 | CS(=O)(=O)c1ccc(-c2ccc(N)nc2)c(-c2nn[nH]n2)c1S(N)(=O)=O [Example 237, 3-(6-Aminopyridin-3-yl)-6-(methylsulfonyl)-2-(2H-tetrazol-5-yl)benzenesulfonamide] | 1.563 µM | 9.12 | 6.25 µM | 0.3906 µM | 1.563 µM | 25 µM | 15.99 | 8.24 | 9.20
